Source: ChEMBL document CHEMBL1201862, “PubChem BioAssay data set” (2004)
Activity calls are given as the source filed them.

Assays:
HeLa = assay: viability loss in HeLa cells – cell-based, ATP luminescence, cherry-pick samples, cytotoxicity control, dose response (AID 687004); assay type: functional; conditions: Homo sapiens
HEK293 = assay: viability loss in HEK293T cells – cell-based, ATP luminescence, cherry-pick samples, cytotoxicity control, dose response (AID 687005); assay type: functional; conditions: Homo sapiens;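 note: cells exposed to compound for 48 hours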
[1] = HEK293 Cytotoxicity Assay Measured in Cell-Based System Using Plate Reader - 7071-01_Inhibitor_Dose_CherryPick_Activity_Set2.; assay type: functional
[2] = biological target: T1, Oxysterols receptor LXR-beta (Homo sapiens, UniProt P55055); assay type: functional, cell-based;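 note: agonist activity at LXR measured by a cell-based luminescence readout across a dose range, run as a counterscreen for daf-12 agonists; HEK293 cells with Gal4-LXR fusion and GAL4-driven luciferase reporter; potency for activation of Gal4-LXR reporter so compounds are agonists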
T1 sequence (P55055 whole entry): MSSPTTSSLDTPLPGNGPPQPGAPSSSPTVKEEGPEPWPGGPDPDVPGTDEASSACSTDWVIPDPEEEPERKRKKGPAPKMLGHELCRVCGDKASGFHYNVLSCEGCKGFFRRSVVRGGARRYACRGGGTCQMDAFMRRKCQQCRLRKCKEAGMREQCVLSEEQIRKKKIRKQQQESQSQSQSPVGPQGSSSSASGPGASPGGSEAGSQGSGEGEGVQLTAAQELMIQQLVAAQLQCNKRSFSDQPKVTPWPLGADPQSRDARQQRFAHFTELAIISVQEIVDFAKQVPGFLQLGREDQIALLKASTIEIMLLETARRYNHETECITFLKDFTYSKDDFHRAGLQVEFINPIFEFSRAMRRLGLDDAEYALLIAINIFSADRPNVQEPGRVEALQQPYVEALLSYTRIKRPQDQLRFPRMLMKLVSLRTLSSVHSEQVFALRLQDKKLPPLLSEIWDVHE

fMet-Leu-Phe receptor = fMet-Leu-Phe receptor (Homo sapiens, UniProt P21462); assay: formyl peptide receptor binders – dose response (AID 519); assay type: functional
fMet-Leu-Phe receptor, sequence (P21462 whole entry): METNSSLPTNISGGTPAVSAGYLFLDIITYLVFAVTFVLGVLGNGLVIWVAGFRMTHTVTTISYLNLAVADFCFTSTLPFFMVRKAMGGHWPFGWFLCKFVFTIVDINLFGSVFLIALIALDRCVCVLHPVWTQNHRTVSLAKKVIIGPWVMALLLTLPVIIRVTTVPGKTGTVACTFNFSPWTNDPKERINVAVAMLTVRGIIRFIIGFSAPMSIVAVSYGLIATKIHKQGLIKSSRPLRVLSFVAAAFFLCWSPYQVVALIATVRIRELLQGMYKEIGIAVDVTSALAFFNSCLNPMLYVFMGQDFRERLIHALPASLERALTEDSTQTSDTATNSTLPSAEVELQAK

[3] = biological target: T2, Methionyl-tRNA synthetase, putative (Trypanosoma brucei brucei, UniProt Q38C91); assay type: functional, Trypanosoma brucei brucei strain 927/4 GUTat10.1
T2 sequence (Q38C91 whole entry): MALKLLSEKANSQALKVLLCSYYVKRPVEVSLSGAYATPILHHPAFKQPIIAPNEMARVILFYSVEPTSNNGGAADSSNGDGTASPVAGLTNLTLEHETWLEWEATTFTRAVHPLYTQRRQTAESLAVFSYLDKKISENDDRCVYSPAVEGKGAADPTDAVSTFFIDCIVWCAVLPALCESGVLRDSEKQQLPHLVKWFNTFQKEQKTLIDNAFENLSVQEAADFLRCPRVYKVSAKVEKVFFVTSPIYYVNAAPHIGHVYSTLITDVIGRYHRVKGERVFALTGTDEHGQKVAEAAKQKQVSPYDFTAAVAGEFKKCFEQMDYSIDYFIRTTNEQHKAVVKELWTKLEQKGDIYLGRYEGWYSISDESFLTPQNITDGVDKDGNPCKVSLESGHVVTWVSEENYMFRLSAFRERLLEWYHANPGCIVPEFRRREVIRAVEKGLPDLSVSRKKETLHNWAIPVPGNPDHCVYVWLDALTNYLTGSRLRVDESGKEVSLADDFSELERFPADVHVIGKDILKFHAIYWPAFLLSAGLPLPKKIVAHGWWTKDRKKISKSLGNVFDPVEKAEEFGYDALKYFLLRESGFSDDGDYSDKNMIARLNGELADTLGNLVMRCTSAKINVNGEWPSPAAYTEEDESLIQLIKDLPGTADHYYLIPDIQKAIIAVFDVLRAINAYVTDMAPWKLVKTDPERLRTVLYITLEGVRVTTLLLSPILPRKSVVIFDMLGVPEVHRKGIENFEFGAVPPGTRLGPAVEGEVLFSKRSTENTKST

[4] = Counterscreen for inhibitors of Trypanosoma brucei methionyl tRNA synthetase (MetRS): Luminescence-based cell-based high throughput dose response assay to identify compounds that are cytotoxic to Jurkat human T lymphocyte cells.; assay type: functional
[5] = biological target: T2, Methionyl-tRNA synthetase, putative; assay type: functional, Trypanosoma brucei brucei strain 927/4 GUTat10.1; remark: listed apart in the source
CAAX prenyl protease 2 = biological target: T3, CAAX prenyl protease 2 (Homo sapiens, UniProt Q9Y256); assay: inhibition of Ras-converting CAAX protease Rce1 – biochemical, yeast membranes, quenched-peptide fluorescence, cherry-pick, dose response (AID 588849)
T3 sequence (Q9Y256 whole entry): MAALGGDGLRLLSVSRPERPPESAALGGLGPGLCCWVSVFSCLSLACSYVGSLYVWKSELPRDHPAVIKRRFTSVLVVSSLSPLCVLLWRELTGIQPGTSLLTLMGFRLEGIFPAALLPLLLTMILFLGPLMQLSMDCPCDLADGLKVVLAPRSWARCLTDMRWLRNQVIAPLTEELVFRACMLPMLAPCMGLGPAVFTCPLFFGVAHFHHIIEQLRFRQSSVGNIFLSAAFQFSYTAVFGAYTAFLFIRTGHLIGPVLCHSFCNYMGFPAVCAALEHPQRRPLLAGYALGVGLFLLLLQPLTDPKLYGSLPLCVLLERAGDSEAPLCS

[6] = biological target: T4, Corticotropin-releasing factor receptor 2/Corticotropin-releasing factor-binding protein (Homo sapiens, UniProt P24387+Q13324); assay: Dose Response confirmation of uHTS hits for small molecule antagonists of the CRF-binding protein and CRF-R2 receptor complex.; assay type: functional; conditions: read-out: IC50_Mean
T4 sequence (Q13324 whole entry): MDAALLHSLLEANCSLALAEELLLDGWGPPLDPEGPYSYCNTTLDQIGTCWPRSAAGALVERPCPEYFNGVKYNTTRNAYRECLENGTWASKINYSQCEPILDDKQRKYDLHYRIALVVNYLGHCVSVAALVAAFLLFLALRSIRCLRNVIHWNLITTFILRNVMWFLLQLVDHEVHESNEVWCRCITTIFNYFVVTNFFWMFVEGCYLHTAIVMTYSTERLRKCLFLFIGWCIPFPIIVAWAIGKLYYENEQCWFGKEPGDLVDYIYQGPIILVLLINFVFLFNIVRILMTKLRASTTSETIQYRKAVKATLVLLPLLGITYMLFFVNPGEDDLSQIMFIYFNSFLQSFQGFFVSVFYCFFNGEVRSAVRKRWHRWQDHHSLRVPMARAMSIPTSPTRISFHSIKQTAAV
T4 sequence (P24387 whole entry): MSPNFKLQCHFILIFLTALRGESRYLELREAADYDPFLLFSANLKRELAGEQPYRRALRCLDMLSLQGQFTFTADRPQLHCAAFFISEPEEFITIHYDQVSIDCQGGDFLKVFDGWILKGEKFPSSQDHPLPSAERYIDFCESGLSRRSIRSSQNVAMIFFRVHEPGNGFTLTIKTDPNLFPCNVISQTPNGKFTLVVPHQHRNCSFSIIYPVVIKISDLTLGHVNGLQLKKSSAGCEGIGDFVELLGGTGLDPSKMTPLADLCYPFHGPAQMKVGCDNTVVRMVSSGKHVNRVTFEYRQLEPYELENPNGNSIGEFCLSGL

[7] = biological target: T4, Corticotropin-releasing factor receptor 2/Corticotropin-releasing factor-binding protein; assay: activators of CRF receptor 2 with binding protein – uHTS hits, confirmation (AID 602473); assay type: functional; conditions: read-out: EC50_Mean
[8] = blockers of CRF-binding protein–CRF-R2 complex – cell-based, uHTS hits, 384-well, dose response (AID 651639); assay type: functional, Homo sapiens; conditions: read-out: IC50_Mean
Cytochrome P450 2C9 = Cytochrome P450 2C9 (Homo sapiens, UniProt P11712)
Cytochrome P450 2C9, sequence (P11712 whole entry): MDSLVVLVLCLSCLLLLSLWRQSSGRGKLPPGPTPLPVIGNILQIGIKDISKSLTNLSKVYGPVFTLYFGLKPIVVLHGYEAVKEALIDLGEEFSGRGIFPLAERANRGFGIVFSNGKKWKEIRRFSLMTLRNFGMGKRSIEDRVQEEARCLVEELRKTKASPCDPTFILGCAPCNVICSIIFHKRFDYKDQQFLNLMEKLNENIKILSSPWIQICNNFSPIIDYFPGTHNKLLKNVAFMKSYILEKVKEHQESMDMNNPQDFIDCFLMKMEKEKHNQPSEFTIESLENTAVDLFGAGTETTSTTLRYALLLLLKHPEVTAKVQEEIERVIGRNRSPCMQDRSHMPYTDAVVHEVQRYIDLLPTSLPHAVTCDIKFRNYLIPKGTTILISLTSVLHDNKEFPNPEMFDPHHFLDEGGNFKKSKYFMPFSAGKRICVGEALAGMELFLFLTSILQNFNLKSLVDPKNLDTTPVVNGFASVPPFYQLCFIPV

Bcl-2-related protein A1 = biological target: T5, Bcl-2-related protein A1 (Mus musculus, UniProt Q07440); assay type: functional;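 note: confirmatory dose–response counterscreen on Bfl-1, used to check hits from a UBC13 polyubiquitin inhibitor campaign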
T5 sequence (Q07440 whole entry): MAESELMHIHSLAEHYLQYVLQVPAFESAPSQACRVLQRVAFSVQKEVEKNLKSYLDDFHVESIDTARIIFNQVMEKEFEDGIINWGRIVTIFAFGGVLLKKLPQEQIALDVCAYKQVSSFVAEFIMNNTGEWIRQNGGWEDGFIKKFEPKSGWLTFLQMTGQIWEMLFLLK

[9] = biological target: T6, Ubiquitin-conjugating enzyme E2 N (Homo sapiens, UniProt P61088); assay type: functional
T6 sequence (P61088 whole entry): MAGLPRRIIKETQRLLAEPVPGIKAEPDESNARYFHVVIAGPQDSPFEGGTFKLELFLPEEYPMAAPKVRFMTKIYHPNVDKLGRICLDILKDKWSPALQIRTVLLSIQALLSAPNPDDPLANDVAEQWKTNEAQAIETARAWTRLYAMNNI

[10] = biological target: T6, Ubiquitin-conjugating enzyme E2 N; assay type: functional; remark: listed apart in the source
[11] = biological target: DNA repair protein RAD52 homolog (Homo sapiens, UniProt P43351); assay type: functional, biochemical
DNA repair protein RAD52 homolog, sequence (P43351 whole entry): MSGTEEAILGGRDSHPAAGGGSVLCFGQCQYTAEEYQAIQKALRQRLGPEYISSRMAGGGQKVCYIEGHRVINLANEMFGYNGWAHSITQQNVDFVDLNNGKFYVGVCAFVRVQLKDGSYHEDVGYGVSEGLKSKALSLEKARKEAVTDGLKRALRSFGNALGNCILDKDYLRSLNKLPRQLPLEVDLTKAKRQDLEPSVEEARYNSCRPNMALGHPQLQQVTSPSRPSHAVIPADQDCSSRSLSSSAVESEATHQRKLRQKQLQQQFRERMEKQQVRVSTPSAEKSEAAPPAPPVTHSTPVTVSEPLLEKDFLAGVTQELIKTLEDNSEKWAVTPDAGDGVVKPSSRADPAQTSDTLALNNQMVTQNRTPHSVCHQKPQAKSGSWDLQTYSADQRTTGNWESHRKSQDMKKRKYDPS

Beta-galactosidase = Beta-galactosidase (Escherichia coli, UniProt Q8VNN2); assay: Dose response counterscreen for EBI2 assay utilizing the enzyme, b-galactosidase.; assay type: functional
Beta-galactosidase, sequence (Q8VNN2 whole entry, the tested form may be a part): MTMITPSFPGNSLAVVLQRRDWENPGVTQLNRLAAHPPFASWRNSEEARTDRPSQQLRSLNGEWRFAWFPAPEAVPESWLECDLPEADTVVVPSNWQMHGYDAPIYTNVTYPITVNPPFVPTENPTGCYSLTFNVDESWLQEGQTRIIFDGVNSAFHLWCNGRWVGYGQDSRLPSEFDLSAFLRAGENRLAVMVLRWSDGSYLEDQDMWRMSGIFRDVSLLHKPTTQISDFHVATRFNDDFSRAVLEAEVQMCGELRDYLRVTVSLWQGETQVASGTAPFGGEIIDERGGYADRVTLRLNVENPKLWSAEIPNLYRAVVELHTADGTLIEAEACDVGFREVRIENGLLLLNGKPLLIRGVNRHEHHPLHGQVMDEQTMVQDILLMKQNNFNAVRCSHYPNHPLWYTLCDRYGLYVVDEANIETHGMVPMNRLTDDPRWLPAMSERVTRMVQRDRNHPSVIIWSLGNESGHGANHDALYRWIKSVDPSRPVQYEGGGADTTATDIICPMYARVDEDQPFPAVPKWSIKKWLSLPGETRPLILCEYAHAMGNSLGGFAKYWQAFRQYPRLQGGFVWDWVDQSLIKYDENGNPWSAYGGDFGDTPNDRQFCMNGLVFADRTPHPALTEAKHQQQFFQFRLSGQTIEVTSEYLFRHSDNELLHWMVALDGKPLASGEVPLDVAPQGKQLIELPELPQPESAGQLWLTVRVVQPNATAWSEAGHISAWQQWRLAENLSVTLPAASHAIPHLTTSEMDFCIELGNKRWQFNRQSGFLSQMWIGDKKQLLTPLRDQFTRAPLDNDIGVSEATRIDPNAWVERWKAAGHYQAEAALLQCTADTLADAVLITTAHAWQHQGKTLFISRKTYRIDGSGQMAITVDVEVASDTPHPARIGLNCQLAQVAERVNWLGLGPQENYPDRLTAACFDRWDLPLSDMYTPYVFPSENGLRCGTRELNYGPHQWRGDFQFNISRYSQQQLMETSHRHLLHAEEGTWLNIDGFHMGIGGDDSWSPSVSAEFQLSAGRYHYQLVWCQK

[12] = biological target: Disintegrin and metalloproteinase domain-containing protein 17 (Homo sapiens, UniProt P78536); assay: exosite inhibitors of ADAM17, dose response, biochemical (AID 743260)
Disintegrin and metalloproteinase domain-containing protein 17, sequence (P78536 whole entry, the tested form may be a part): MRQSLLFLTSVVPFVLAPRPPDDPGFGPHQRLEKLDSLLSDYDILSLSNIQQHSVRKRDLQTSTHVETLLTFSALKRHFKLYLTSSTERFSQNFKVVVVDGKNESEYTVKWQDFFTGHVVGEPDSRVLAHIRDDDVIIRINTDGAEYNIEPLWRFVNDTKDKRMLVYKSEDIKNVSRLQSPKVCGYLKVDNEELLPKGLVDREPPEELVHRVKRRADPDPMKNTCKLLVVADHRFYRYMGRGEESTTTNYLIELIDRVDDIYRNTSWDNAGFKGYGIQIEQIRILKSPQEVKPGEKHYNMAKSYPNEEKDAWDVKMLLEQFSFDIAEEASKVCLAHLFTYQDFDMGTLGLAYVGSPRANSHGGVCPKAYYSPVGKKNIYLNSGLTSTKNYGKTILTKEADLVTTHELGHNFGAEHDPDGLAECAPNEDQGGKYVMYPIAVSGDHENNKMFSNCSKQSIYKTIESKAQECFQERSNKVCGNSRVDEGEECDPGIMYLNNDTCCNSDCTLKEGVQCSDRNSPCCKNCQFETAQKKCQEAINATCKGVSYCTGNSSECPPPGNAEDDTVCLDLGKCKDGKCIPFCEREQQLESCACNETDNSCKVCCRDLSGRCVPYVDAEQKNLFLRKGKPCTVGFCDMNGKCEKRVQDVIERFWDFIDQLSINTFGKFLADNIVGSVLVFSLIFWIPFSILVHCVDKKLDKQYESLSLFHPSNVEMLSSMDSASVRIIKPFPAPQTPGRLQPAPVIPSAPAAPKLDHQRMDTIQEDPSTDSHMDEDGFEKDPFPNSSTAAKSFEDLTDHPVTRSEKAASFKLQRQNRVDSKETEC

[13] = inhibition of ADAM10 peptide cleavage – biochemical, FRET peptide substrate, recombinant human ADAM10, selectivity assay for ADAM17 exosite inhibitor project, dose response (AID 743259);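 note: ADAM10 enzyme cleaving a FRET peptide substrate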

For Cc1ccc(N=C(S)Nc2ccc(Cl)c(Cl)c2)c(OC(F)F)c1, the AC50 (HeLa) was 29.9 µM (active), the AC50 (HEK293) was 26.6 µM (active) and the AC50 [1] was 26.6 µM (active).
In the case of CCS(=O)(=O)Nc1cc(-c2nc3cccnc3s2)ccc1C, the EC50 [2] is reported as > 67.5 µM (inactive).
In the case of COCCCN1C(=O)C(O)=C(C(=O)c2ccco2)C1c1ccc(Br)cc1 (configuration not stated), the Ki (fMet-Leu-Phe receptor) is reported as 14.7 µM (active).
With C#Cc1ccc([C@@H]2C=C(C(=O)NCc3nc4ccccc4[nH]3)O[C@H](OCC)[C@H]2CCCO)cc1 the IC50 [3] was 22.3 µM (inactive), the IC50 [4] was 35.8 µM (inactive) and the IC50 [5] was 8.94 µM (active).
With CSc1nnc(-c2sc(-c3ccccc3)nc2C)n1C the AC50 (CAAX prenyl protease 2) was > 100 µM (inactive), the IC50 [6] was < 0.368 µM (active) and the EC50 [7] was > 53 µM (inactive). The IC50 [8] was > 20 µM (inactive) and the AC50 (Cytochrome P450 2C9) was 0.0708 µM (inconclusive).
In the case of Cc1ccc(C(=O)NCCN2C3=NC[C@@H](Cc4ccccc4)N3C[C@H]2Cc2ccc(O)cc2)cc1Br, the IC50 (Bcl-2-related protein A1) is reported as > 20 µM (inactive), the IC50 [9] is reported as 19.4 µM (active) and the IC50 [10] is reported as > 20 µM (inactive). For the same compound, the AC50 [11] was 19.2 µM (active).
With O=C(/C=C/c1ccccc1)N1CCN(c2ccccn2)CC1 the IC50 (Beta-galactosidase) was > 80 µM (inactive).
For O=C(SCC(O)C(O)CS)c1cccs1 (configuration not stated), the IC50 [12] was 3.76 µM (active) and the IC50 [13] was 40.5 µM (inactive).
In the case of OCc1nc2ccccc2n1CC(O)Cn1ccc2ccccc21 (configuration not stated), the Ki (fMet-Leu-Phe receptor) is reported as > 66.7 µM (inactive).
With CC1CCC(NC(=O)c2cccn2C)CC1 (configuration not stated) the EC50 [2] was > 67.6 µM (inactive).
